Our source for the Kd values is patent US12043632B2, “6-heteroaryloxy benzimidazoles and azabenzimidazoles as JAK2 inhibitors” (Ajax Therapeutics, Inc., priority 2020, dated 2024).

One may read the Kd as the concentration at which binding is half-saturated.

T1 sequence (O60674 849-1124 Y1007F/Y1008F limits assumed): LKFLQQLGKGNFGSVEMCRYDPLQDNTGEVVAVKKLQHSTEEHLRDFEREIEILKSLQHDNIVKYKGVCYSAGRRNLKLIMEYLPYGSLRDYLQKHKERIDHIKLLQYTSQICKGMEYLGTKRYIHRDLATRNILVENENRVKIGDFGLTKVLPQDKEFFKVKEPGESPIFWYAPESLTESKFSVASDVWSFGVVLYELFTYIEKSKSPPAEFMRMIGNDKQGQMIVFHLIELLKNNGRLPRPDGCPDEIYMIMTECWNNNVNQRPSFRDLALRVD

The test addresses T1, JAK2 (JH1domain-catalytic, Y1007F,Y1008F) kinase (Homo sapiens, UniProt O60674, Y1007F/Y1008F).
T1 construct: JAK2 (JH1domain-catalytic, Y1007F,Y1008F) kinase was expressed as N-terminal fusion; made in house; host or cells: transiently transfected HEK293 cells
In words: JAK2 JH1 Domain Binding Assay. The following applies: qPCR readout. On the technique in general: Real-time PCR tracks product formation cycle by cycle.
As for `Cn1c(Nc2cc(C(F)(F)F)cn([C@H]3CC[C@H]3O)c2=O)nc2ncc(Oc3cnn4ccncc34)c(Cl)c21` (single isomer, unassigned) [Example I-119-b], the Kd was under 10 nM.

In the case of `COc1c(Oc2cnn3ccncc23)cnc2nc(Nc3cc(C4CC4)cn([C@@H](C)CC#N)c3=O)n(C)c12` (single isomer, unassigned) [Example I-121-a], the Kd is under 10 nM.

For the compound `COc1c(Oc2cnn3ccncc23)cnc2nc(Nc3cc(C4CC4)cn([C@H](C)CC#N)c3=O)n(C)c12` (single isomer, unassigned) [Example I-121-b], the Kd is under 10 nM.

For the compound `COc1c(Oc2cnn3ccccc23)cnc2nc(Nc3cc(C4CC4)cn([C@@H]4CC[C@H]4O)c3=O)n(C)c12` (single isomer, unassigned) [Example I-122-a], the Kd was under 10 nM.

Compound `COc1c(Oc2cnn3ccccc23)cnc2nc(Nc3cc(C4CC4)cn([C@H]4CC[C@@H]4O)c3=O)n(C)c12` (single isomer, unassigned) [Example I-122-b] returned a Kd of under 10 nM.

`COc1c(Oc2cnn3ccccc23)cnc2nc(Nc3cc(C4CC4)cn([C@@H]4CC[C@@H]4O)c3=O)n(C)c12` (single isomer, unassigned) [Example I-131-a] had a Kd of under 10 nM.

As to `COc1c(Oc2cnn3ccccc23)cnc2nc(Nc3cc(C4CC4)cn([C@H]4CC[C@H]4O)c3=O)n(C)c12` (single isomer, unassigned) [Example I-131-b], the Kd is 10 to 50 nM.

`Cn1cc(C2CC2)cc(Nc2nc3ncc(Oc4cnn5ccnc(O[C@@H]6CC[C@H]6O)c45)c(Cl)c3n2C)c1=O` (single isomer, unassigned) [Example I-133-a]: the Kd was under 10 nM.

The compound `Cn1cc(C2CC2)cc(Nc2nc3ncc(Oc4cnn5ccnc(O[C@H]6CC[C@@H]6O)c45)c(Cl)c3n2C)c1=O` (single isomer, unassigned) [Example I-133-b] returned a Kd of under 10 nM.

`Cn1cc(C(F)(F)F)cc(Nc2nc3ncc(Oc4cnn5ccnc(O[C@@H]6CC[C@H]6O)c45)c(Cl)c3n2C)c1=O` (single isomer, unassigned) [Example I-139-a] had a dissociation constant Kd of under 10 nM.

Take `Cn1cc(C(F)(F)F)cc(Nc2nc3ncc(Oc4cnn5ccnc(O[C@H]6CC[C@@H]6O)c45)c(Cl)c3n2C)c1=O` (single isomer, unassigned) [Example I-139-b]: the dissociation constant Kd was under 10 nM.

Regarding `Cn1c(Nc2cc(C(C)(C)C)n([C@H]3CC[C@H]3O)n2)nc2ncc(Oc3cnn4ccncc34)c(Cl)c21` (single isomer, unassigned) [Example I-147-a], the Kd is under 10 nM.

In turn, `Cn1c(Nc2cc(C(C)(C)C)n([C@@H]3CC[C@@H]3O)n2)nc2ncc(Oc3cnn4ccncc34)c(Cl)c21` (single isomer, unassigned) [Example I-147-b] returned a Kd of under 10 nM.

As for `Cn1c(Nc2cc(C3CC3)nn([C@@H]3CCCOC3)c2=O)nc2ncc(Oc3cnn4ccccc34)c(Cl)c21` (single isomer, unassigned) [Example I-148-a], the Kd was under 10 nM.

The compound `Cn1c(Nc2cc(C3CC3)nn([C@H]3CCCOC3)c2=O)nc2ncc(Oc3cnn4ccccc34)c(Cl)c21` (single isomer, unassigned) [Example I-148-b] had a Kd of 10 to 50 nM.

Regarding `Cn1c(Nc2cc(C(C)(C)C)n([C@H]3COC[C@@H]3O)n2)nc2ncc(Oc3cnn4ccncc34)c(C#N)c21` (single isomer, unassigned) [Example I-150-a], the Kd lay in the range of 10 to 50 nM.

The compound `Cn1c(Nc2cc(C(C)(C)C)n([C@@H]3COC[C@H]3O)n2)nc2ncc(Oc3cnn4ccncc34)c(C#N)c21` (single isomer, unassigned) [Example I-150-b] returned a dissociation constant Kd of 10 to 50 nM.

With `CNc1nccn2ncc(Oc3cnc4nc(Nc5cc(C(F)(F)F)cn([C@H]6CCCOC6)c5=O)n(C)c4c3Cl)c12` (single isomer, unassigned) [Example I-245-a], the Kd was under 10 nM.

Turning to `CNc1nccn2ncc(Oc3cnc4nc(Nc5cc(C(F)(F)F)cn([C@@H]6CCCOC6)c5=O)n(C)c4c3Cl)c12` (single isomer, unassigned) [Example I-245-b], the Kd was 10 to 50 nM.

`CNc1nccn2ncc(Oc3cnc4nc(Nc5cc(C(F)(F)F)cn([C@H]6CCOC6)c5=O)n(C)c4c3Cl)c12` (single isomer, unassigned) [Example I-262-a] returned a Kd of under 10 nM.

`CNc1nccn2ncc(Oc3cnc4nc(Nc5cc(C(F)(F)F)cn([C@@H]6CCOC6)c5=O)n(C)c4c3Cl)c12` (single isomer, unassigned) [Example I-262-b] yielded a Kd of under 10 nM.

Consider `CN1C[C@@H](F)[C@H](n2nc(Nc3nc4ncc(Oc5cnn6ccncc56)c(Cl)c4n3C)cc2C(C)(C)C)C1` (single isomer, unassigned) [Example I-267-a], for which the Kd was in the range of 10 to 50 nM.

Turning to `CN1C[C@H](F)[C@@H](n2nc(Nc3nc4ncc(Oc5cnn6ccncc56)c(Cl)c4n3C)cc2C(C)(C)C)C1` (single isomer, unassigned) [Example I-267-b], the Kd was in the range of 50 to 1000 nM.

Turning to `CNc1nccn2ncc(Oc3cnc4nc(Nc5cc(C6CCCN6C)cc(C(F)(F)F)c5)n(C)c4c3Cl)c12` (single isomer, unassigned) [Example I-269-a], the Kd was in the range of 10 to 50 nM.

Compound `CNc1nccn2ncc(Oc3cnc4nc(Nc5cc(C6CCCN6C)cc(C(F)(F)F)c5)n(C)c4c3Cl)c12` (single isomer, unassigned) [Example I-269-b] displayed a Kd of 10 to 50 nM.

Turning to `CN1CCC[C@@H]1c1cc(Nc2nc3ncc(Oc4cnn5ccncc45)c(Cl)c3n2C)cc(C(F)(F)F)c1` (single isomer, unassigned) [Example I-270-a], the dissociation constant (Kd) is under 10 nM.

On to `CN1CCC[C@H]1c1cc(Nc2nc3ncc(Oc4cnn5ccncc45)c(Cl)c3n2C)cc(C(F)(F)F)c1` (single isomer, unassigned) [Example I-270-b], for which the Kd is under 10 nM.

With `CNc1nccn2ncc(Oc3cnc4nc(Nc5cc(C(F)(F)F)n([C@H]6COC[C@@H]6O)n5)n(C)c4c3Cl)c12` (single isomer, unassigned) [Example I-279-a], the Kd was under 10 nM.

`CNc1nccn2ncc(Oc3cnc4nc(Nc5cc(C(F)(F)F)n([C@@H]6COC[C@H]6O)n5)n(C)c4c3Cl)c12` (single isomer, unassigned) [Example I-279-b] gave a Kd of under 10 nM.

In turn, `CNc1nccn2ncc(Oc3cnc4nc(Nc5cc([C@@H]6CCOC6)nc(C(F)(F)F)c5)n(C)c4c3Cl)c12` (single isomer, unassigned) [Example I-280-a] came in with a Kd of 10 to 50 nM.

`CNc1nccn2ncc(Oc3cnc4nc(Nc5cc([C@H]6CCOC6)nc(C(F)(F)F)c5)n(C)c4c3Cl)c12` (single isomer, unassigned) [Example I-280-b] had a Kd of 10 to 50 nM.

Take `CNc1cn2ncc(Oc3cnc4nc(Nc5cc(C(F)(F)F)cn([C@H]6CCOC6)c5=O)n(C)c4c3Cl)c2cn1` (single isomer, unassigned) [Example I-305]: the Kd was under 10 nM.

For `CNc1cn2ncc(Oc3cnc4nc(Nc5cc(C(F)(F)F)cn([C@@H]6CCOC6)c5=O)n(C)c4c3Cl)c2cn1` (single isomer, unassigned) [Example I-306], the Kd is 10 to 50 nM.

The compound `CN1CCCC1c1ccc(Nc2nc3ncc(Oc4cnn5ccncc45)c(Cl)c3n2C)cc1C(F)(F)F` (single isomer, unassigned) [Example I-343] showed a Kd of under 10 nM.

As for `CN1CCC[C@@H]1c1ccc(Nc2nc3ncc(Oc4cnn5ccncc45)c(Cl)c3n2C)cc1C(F)(F)F` (single isomer, unassigned) [Example I-344], the Kd was under 10 nM.

The compound `CN1CCCCC1COc1cc(Nc2nc3ncc(Oc4cnn5ccncc45)c(Cl)c3n2C)cc(C(F)(F)F)c1` (single isomer, unassigned) [Example I-350-a] registered a Kd of under 10 nM.

Compound `CN1CCCCC1COc1cc(Nc2nc3ncc(Oc4cnn5ccncc45)c(Cl)c3n2C)cc(C(F)(F)F)c1` (single isomer, unassigned) [Example I-350-b] gave a Kd of under 10 nM.

The compound `CNc1cn2ncc(Oc3cnc4nc(Nc5cc(C(F)(F)F)cn([C@H]6CCCOC6)c5=O)n(C)c4c3Cl)c2cn1` (single isomer, unassigned) [Example I-352-a] yielded a Kd of 10 to 50 nM.

In the case of `CNc1cn2ncc(Oc3cnc4nc(Nc5cc(C(F)(F)F)cn([C@@H]6CCCOC6)c5=O)n(C)c4c3Cl)c2cn1` (single isomer, unassigned) [Example I-352-b], the equilibrium dissociation constant (Kd) fell in the range of 10 to 50 nM.

The compound `CNc1cn2ncc(Oc3cnc4nc(Nc5cc([C@H]6CCCN6C)cc(C(F)(F)F)c5)n(C)c4c3Cl)c2cn1` (single isomer, unassigned) [Example I-359-a] came in with a Kd of 50 to 1000 nM.

Turning to `CNc1cn2ncc(Oc3cnc4nc(Nc5cc([C@@H]6CCCN6C)cc(C(F)(F)F)c5)n(C)c4c3Cl)c2cn1` (single isomer, unassigned) [Example I-359-b], the Kd lay within 50 to 1000 nM.

In turn, `COCCN1CCC(n2nc(Nc3nc4ncc(Oc5cnn6ccncc56)c(C(F)F)c4n3C)cc2C(C)(C)C)C1` (stereo in doubt) [Example I-52, (S)—N-(5-(tert-butyl)-1-(1-(2-methoxyethyl)pyrrolidin-3-yl)-1H-pyrazol-3-yl)-7-(difluoromethyl)-1-methyl-6-(pyrazolo[1,5-a]pyrazin-3-yloxy)-1H-imidazo[4,5-b]pyridin-2-amine] had a Kd of 10 to 50 nM.

As for `Cn1c(Nc2cc(C(F)(F)F)cn([C@H]3C[C@H](O)C3)c2=O)nc2ncc(Oc3cnn4ccncc34)c(Cl)c21` (stereo in doubt) [Example I-89, trans-3-((7-chloro-1-methyl-6-(pyrazolo[1,5-a]pyrazin-3-yloxy)-1H-imidazo[4,5-b]pyridin-2-yl)amino)-1-(3-hydroxycyclobutyl)-5-(trifluoromethyl)pyridin-2(1H)-one], the dissociation constant (Kd) was under 10 nM.

On to `Cn1c(Nc2ccc(CN3CCC(O)C3)c(C(F)(F)F)c2)nc2ncc(Oc3cnn4ccncc34)c(Cl)c21` (stereo in doubt) [Example I-185, (S)-1-(4-((7-chloro-1-methyl-6-(pyrazolo[1,5-a]pyrazin-3-yloxy)-1H-imidazo[4,5-b]pyridin-2-yl)amino)-2-(trifluoromethyl)benzyl)pyrrolidin-3-ol], for which the dissociation constant (Kd) is under 10 nM.
